Values of other authors in patent publication US5534537A, “Prodrugs of inhibitors of farnesyl-protein transferase” (Merck & Co., Inc., priority 1995, dated 1996).

System: farnesyl-protein transferase
Details: via inhibition of HMG-CoA reductase, literature (Hancock et al.; Casey et al.; Schafer et al.)

Row | SMILES | Indirect inhibition of farnesyl-protein transferase in vivo
1 | CC[C@H](C)C(=O)O[C@H]1CCC=C2C=C[C@H](C)[C@H](CC[C@@H]3C[C@@H](O)CC(=O)O3)[C@H]21 [compactin] | Indirect inhibition
2 | CC[C@H](C)C(=O)O[C@H]1C[C@@H](C)C=C2C=C[C@H](C)[C@H](CC[C@@H]3C[C@@H](O)CC(=O)O3)[C@H]21 [lovastatin] | Indirect inhibition
